Test [1] deals with T1, Lysine-specific histone demethylase 1A (Homo sapiens, UniProt O60341). Nature of the test: Inhibition of human LSD1 (172 to 833 residues) using Lys4-dimethylated H3 (1-20) peptide as substrate incubated for 30 mins by peroxidase-coupled assay.
Test [2] addresses T2, Lysine-specific histone demethylase 2 (Homo sapiens, UniProt Q8NB78).
T2 sequence (Q8NB78 whole entry): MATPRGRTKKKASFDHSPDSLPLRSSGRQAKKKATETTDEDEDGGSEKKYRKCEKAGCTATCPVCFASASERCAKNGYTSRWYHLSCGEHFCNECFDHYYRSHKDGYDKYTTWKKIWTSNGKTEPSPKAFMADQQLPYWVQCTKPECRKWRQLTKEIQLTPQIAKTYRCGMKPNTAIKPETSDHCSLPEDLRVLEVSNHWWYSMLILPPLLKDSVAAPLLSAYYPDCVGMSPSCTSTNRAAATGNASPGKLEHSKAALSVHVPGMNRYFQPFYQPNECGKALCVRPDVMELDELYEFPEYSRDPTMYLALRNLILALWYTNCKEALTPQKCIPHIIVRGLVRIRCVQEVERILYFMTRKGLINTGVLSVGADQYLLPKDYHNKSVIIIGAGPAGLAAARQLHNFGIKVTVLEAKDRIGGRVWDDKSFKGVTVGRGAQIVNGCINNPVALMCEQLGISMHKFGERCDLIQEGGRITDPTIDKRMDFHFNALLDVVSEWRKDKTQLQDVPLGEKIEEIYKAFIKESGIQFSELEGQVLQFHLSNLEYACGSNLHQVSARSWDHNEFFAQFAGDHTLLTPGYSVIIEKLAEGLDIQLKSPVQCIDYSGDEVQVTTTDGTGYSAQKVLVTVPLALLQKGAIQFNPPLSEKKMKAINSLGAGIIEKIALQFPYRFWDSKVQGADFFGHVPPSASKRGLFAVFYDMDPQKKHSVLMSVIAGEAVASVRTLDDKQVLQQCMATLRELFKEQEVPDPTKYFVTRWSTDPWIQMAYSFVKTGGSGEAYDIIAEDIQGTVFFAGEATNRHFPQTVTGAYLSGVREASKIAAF
In words: Inhibition of LSD2 (unknown origin) using Lys4-dimethylated H3 (1-20) peptide as substrate incubated for 30 mins by peroxidase-coupled assay.

The target of test [3] is T3, Amine oxidase [flavin-containing] A (Homo sapiens, UniProt P21397).
T3 sequence (P21397 whole entry): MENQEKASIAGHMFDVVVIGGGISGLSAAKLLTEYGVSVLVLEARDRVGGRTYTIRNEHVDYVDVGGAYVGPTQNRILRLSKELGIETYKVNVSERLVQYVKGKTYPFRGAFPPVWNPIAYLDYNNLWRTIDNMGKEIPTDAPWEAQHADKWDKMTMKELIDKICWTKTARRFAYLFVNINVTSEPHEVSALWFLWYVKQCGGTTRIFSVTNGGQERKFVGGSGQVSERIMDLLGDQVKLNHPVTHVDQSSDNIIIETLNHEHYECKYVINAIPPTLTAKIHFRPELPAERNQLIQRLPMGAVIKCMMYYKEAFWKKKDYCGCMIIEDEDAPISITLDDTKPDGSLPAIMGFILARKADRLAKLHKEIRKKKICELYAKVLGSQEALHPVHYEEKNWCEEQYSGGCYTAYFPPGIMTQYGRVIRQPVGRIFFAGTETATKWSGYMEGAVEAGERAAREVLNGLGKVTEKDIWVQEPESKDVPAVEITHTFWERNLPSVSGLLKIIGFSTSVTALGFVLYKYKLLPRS
Nature of the test: Inhibition of human MAO-A expressed in baculovirus infected BTI insect cells using tyramine as substrate incubated for 30 mins by peroxidase-coupled assay.

The target of test [4] is T4, Amine oxidase [flavin-containing] B (Homo sapiens, UniProt P27338).
T4 sequence (P27338 whole entry): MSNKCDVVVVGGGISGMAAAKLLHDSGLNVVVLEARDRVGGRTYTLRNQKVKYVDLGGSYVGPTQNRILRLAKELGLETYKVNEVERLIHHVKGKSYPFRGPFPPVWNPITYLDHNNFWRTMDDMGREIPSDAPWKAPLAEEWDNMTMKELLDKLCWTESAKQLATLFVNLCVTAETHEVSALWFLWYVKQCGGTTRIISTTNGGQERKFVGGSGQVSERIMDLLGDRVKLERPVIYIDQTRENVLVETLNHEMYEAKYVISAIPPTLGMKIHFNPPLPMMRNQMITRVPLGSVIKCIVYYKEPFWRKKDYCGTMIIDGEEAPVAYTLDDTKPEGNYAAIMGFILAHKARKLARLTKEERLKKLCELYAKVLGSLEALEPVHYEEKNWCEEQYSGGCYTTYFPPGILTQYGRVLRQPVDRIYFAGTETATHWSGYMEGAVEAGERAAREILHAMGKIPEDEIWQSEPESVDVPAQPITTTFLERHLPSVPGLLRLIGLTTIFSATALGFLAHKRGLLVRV
Nature of the test: biochemical.

For test [5], the target named is T3, Amine oxidase [flavin-containing] A. In words: Inhibition of human MAO-A expressed in baculovirus infected BTI insect cells preincubated for 10 mins followed by substrate addition and measured after 60 mins by luciferin-based luminescence assay.
For test [6], the target named is T4, Amine oxidase [flavin-containing] B. Nature of the test: Inhibition of human MAO-B expressed in baculovirus infected BTI insect cells preincubated for 10 mins followed by substrate addition and measured after 60 mins by luciferin-based luminescence assay.
The target in test [7] is T1, Lysine-specific histone demethylase 1A. In words: Inhibition of His-tagged full length human LSD1 expressed in Escherichia coli BL21 RIPL Codon Plus (DE3) using ARTK(me2)QTARKSTGGKAPRKQLA as substrate preincubated for 10 mins followed by substrate addition by amplex ultra red and HRP reagent based fluorescence method.
The subject of the next test is Kasumi 1. In words: Antiproliferative activity against human KASUMI-1 cells incubated for 72 hrs by CellTiter-glo assay. In kind it is functional, cell-based. The conditions noted are these: Kasumi 1, 72 h. A general note: ATP-based viability assays read luminescence as a measure of living cells.
The test system of a further test is U-937. Nature of the test: Antiproliferative activity against human U-937 cells incubated for 72 hrs by CellTiter-glo assay. It is filed as functional, cell-based. The conditions noted are these: U-937, 72 h.
Another test deals with HL-60. In words: Antiproliferative activity against human HL-60 cells incubated for 72 hrs by CellTiter-glo assay. In kind it is functional, cell-based. The conditions noted are these: HL-60, 72 h.
Another test relates to OCI-AML-3. In words: Antiproliferative activity against human OCI-AML3 cells incubated for 72 hrs by CellTiter-glo assay. The conditions noted are these: OCI-AML-3, 72 h. In kind it is functional, cell-based.
For another test, the system named is THP-1. In words: Antiproliferative activity against human THP-1 cells incubated for 72 hrs by CellTiter-glo assay. It is filed as functional, cell-based. The conditions noted are these: THP-1, 72 h.
The next test has as its system MV4-11. In words: Antiproliferative activity against human MV4-11 cells incubated for 72 hrs by CellTiter-glo assay. In kind it is functional, cell-based. The conditions noted are these: MV4-11, 72 h.
In a further test the target is LSD1/CoREST complex (Homo sapiens, UniProt O60341). In words: Inhibition of LSD1/FLAG-tagged CoREST (unknown origin) expressed in HEK293F cells using diMeK4H3(1 to 21) as substrate preincubated for 5 mins followed by substrate addition measured for 5 mins by horseradish peroxidase-coupled assay.
Test [8] can be described thus: Inhibition of HDAC1/FLAG-tagged CoREST (unknown origin) expressed in HEK293F cells using p53 (379 to 382 residues) (RHKK(Ac) as substrate incubated for 30 mins by fluorescence method. Also noted: species or system Homo sapiens.
Test [9] is described as follows: Antiproliferative activity against human SCCIC1 cells after 72 hrs by [3H] thymidine incorporation assay. It is filed as functional, cell-based. (Dividing cells build labelled thymidine or BrdU into new DNA.)
Test [10] can be described thus: Antiproliferative activity against human MET-1 cells after 72 hrs by [3H] thymidine incorporation assay. In kind it is functional, cell-based.
Test [11] concerns the target T4, Amine oxidase [flavin-containing] B. Nature of the test: Inhibition of MAO-B (unknown origin) measured after 60 mins by luciferin-based luminescence assay.
For test [12], the target named is T1, Lysine-specific histone demethylase 1A.
Test [13] shares this target. This is another data set of the same source.
Test [14] shares this target. This is another data set of the same source.
Test [15] concerns the target T3, Amine oxidase [flavin-containing] A.

Consider `N[C@H]1CCN(C(=O)CNC2CC2c2cc(F)cc(F)c2OCc2ccccc2)C1` (some centres not stated), for which the inhibition constant Ki (usually a dissociation constant, usually derived from enzyme kinetics or from competition with a known ligand) in [1] was 560 nM; in test [2], > 250000 nM; in test [3] it was > 250000 nM; in test [4] it was > 250000 nM.
`Cn1cc(C(=O)Nc2ccc([C@@H]3C[C@H]3NCC3CC3)cc2)cn1`: the IC50 in [5] and in test [6] was > 100000 nM each time.
Turning to `N[C@@H]1C[C@H]1c1ccc(C(=O)NCc2ccccc2)cc1`, the half-maximal inhibitory concentration (IC50) (commonly the concentration needed to halve the response being measured) was 300 nM in test [7]; 30 nM in the test with Kasumi 1; 1600 nM with U-937; 1700 nM in the test on HL-60; 1800 nM in the test with OCI-AML-3; 100 nM with THP-1. This compound displayed an IC50 in the test with MV4-11 of 180 nM.
As for `Nc1ccccc1NC(=O)c1ccc(CCCC(=O)Nc2ccc(C3CC3N)cc2)cc1` (configuration not stated), the 50% inhibitory concentration (IC50) came to 1800 nM on LSD1/CoREST complex, 230 nM in test [8], 41 nM in [9] and 6 nM in test [10].
As for `CN1CCN(C(=O)CN[C@@H]2C[C@H]2c2ccc(F)nc2)CC1`, the IC50 in [11] amounted to 10800 nM; in test [12], 31 nM; in test [13], 3 nM; in test [14], 7 nM; in [15], 12900 nM.
